Experiments:
[1] = target: T1, Metabotropic glutamate receptor 2 (Homo sapiens, UniProt Q14416); test: Evaluation of the functional effect on cAMP responses in RGT cells expressing human mGlu2 receptor; format: cell-based
[2] = target: T2, Metabotropic glutamate receptor 3 (Homo sapiens, UniProt Q14832); test: Evaluation of the functional effect on cAMP responses in RGT cells expressing human mGlu3 receptor; format: cell-based
[3] = target: T1, Metabotropic glutamate receptor 2; test: Displacement of [3H]-341495 binding to membranes expressing recombinant human Metabotropic glutamate receptor 2
[4] = target: T2, Metabotropic glutamate receptor 3; test: Displacement of [3H]-341495 binding to membranes expressing recombinant human Metabotropic glutamate receptor 3

T1 sequence (Q14416 whole entry): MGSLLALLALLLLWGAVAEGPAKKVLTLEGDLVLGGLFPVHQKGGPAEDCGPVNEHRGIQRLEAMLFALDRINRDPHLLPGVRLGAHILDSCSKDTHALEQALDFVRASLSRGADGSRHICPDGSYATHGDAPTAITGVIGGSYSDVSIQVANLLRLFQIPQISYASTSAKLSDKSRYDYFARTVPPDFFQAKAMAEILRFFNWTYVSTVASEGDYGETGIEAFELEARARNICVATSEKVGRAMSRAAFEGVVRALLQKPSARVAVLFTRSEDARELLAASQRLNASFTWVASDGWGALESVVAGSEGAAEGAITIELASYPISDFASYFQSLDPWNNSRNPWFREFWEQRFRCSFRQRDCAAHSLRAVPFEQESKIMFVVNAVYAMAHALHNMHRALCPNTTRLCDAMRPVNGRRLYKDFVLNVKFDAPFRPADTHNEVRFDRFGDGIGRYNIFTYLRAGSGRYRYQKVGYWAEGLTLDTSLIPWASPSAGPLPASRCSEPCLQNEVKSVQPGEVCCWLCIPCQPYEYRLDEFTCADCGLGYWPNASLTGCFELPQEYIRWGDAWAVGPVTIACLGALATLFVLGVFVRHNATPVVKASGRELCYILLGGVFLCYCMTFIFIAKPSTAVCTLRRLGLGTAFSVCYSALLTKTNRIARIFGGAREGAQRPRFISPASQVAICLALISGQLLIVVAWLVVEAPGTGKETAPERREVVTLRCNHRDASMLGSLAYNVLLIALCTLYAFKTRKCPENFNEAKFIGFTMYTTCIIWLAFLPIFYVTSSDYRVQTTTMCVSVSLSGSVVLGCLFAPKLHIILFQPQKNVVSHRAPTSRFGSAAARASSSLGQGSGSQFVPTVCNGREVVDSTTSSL
T2 sequence (Q14832 whole entry): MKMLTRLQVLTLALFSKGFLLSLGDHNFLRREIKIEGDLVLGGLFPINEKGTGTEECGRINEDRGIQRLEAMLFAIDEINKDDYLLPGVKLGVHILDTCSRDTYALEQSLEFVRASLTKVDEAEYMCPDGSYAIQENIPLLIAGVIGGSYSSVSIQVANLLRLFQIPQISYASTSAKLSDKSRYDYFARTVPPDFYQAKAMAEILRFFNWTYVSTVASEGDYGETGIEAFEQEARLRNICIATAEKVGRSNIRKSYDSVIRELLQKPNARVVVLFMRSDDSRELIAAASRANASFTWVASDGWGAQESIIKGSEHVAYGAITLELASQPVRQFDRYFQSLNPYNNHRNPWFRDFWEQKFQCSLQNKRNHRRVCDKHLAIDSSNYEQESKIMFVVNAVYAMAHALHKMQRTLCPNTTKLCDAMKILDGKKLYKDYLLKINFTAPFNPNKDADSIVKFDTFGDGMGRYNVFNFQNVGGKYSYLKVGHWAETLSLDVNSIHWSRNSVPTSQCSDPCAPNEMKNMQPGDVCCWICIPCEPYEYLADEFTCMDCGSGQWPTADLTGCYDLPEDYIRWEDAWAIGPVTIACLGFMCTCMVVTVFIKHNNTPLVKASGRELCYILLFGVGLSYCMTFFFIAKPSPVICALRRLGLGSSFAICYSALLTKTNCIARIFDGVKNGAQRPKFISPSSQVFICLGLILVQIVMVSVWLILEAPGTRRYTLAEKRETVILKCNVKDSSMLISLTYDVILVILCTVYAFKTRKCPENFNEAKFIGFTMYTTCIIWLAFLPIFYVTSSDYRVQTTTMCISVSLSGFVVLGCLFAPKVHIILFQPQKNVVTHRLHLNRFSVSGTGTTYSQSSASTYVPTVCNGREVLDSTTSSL

Row | Structure (SMILES) | EC50 [1] | EC50 [2] | Ki [3] | Ki [4] | IC50 [2] | IC50 [1]
1 | C[C@H]1C[C@](N)(C(=O)O)[C@H]2[C@H](C(=O)O)[C@H]21 | > 100000 nM | > 100000 nM | > 100000 nM | > 100000 nM | – | –
2 | C[C@@H]1C[C@@](N)(C(=O)O)[C@@H]2[C@@H](C(=O)O)[C@@H]21 (stereo in doubt; 13) | 397 nM | – | 409 nM | 570 nM | 2940 nM | –
3 | C[C@@H]1C[C@H]2[C@H](C(=O)O)[C@H]2[C@]1(N)C(=O)O | – | – | – | 146 nM | – | 1750 nM
4 | N[C@@]1(C(=O)O)CC[C@H]2[C@H](C(=O)O)[C@H]21 | 10 nM | – | 74 nM | – | – | –
5 | C[C@H]1C[C@@](N)(C(=O)O)[C@@H]2[C@@H](C(=O)O)[C@@H]21 | 45 nM | 34 nM | – | 511 nM | – | –
6 | C[C@@H]1C[C@@](N)(C(=O)O)[C@@H]2[C@@H](C(=O)O)[C@@H]21 (stereo in doubt; (+)-13) | 161 nM | – | 165 nM | 302 nM | 1050 nM | –
